For 24 compounds, IC50 results are on record in patent US12116343B2, “Inhibitors of APOL1 and methods of using same” (Vertex Pharmaceuticals Incorporated, priority 2020, dated 2024).

In this test the target is T1, G1 APOL1 (Homo sapiens, UniProt O14791, I384M/S342G).
T1 construct: expressed in transfected cells
T1 sequence (O14791 28-398 S342G/I384M): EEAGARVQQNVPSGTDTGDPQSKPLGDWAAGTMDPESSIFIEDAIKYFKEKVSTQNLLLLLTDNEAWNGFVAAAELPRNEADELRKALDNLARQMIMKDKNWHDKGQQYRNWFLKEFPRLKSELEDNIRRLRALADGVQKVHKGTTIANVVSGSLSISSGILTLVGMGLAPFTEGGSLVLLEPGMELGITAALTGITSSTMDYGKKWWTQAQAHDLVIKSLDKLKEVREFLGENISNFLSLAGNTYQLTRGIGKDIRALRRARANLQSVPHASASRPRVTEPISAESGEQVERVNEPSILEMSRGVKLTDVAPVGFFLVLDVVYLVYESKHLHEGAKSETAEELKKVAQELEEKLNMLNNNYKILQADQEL
Briefly: Acute APOL1 Thallium Assay with inducible stable clones of HEK 293 cells. Format: cell-based. The settings on record: HEK 293 T-Rex cells expressing G1 APOL1; read-out: Thallium Assay (IC50). In a few lines: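 Tetracycline-inducible HEK293 T-Rex clone G1 DC3.25 expressing G1 APOL1, plated at 26000 cells/well in Opti-MEM with tetracycline induction. APOL1 pore activity read on FLIPR as fluorescence increase from Tl+ influx into cells loaded with a Tl+-sensitive AM-ester dye.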

What is called IC50 is the concentration that inhibits the measured activity by half. Consider `CC(CO)N(C)C(=O)[C@H]1C[C@H](c2c(-c3ccc(F)cc3)[nH]c3c(F)cc(F)cc32)C1` (mixture of isomers) [Compound 193], for which the IC50 fell in the range of 250 to 1000 nM.

For `CC(C)CC(NC(=O)[C@H]1C[C@H](c2c(-c3ccc(F)cc3)[nH]c3c(F)cc(F)cc32)C1)C(N)=O` (stereo partly drawn) [Compound 30], the IC50 was above 1000 nM.

Consider `O=C(N[C@H]1CC[C@@H]1O)[C@H]1C[C@H](c2c(-c3ccc(F)cc3)[nH]c3c(F)cc(F)cc32)C1` [Compound 178], for which the IC50 is above 1000 nM.

On to `COC1CC1NC(=O)[C@H]1C[C@H](c2c(-c3ccc(F)cc3)[nH]c3c(F)cc(F)cc32)C1` (stereo partly drawn) [Compound 18], for which the IC50 is above 1000 nM.

Consider `O=C([C@H]1C[C@H](c2c(-c3ccc(F)cc3)[nH]c3c(F)cc(F)cc32)C1)N1CC[C@@H]1CO` [Compound 195], for which the IC50 is below 250 nM.

In the case of `N#CC(CO)NC(=O)[C@H]1C[C@H](c2c(-c3ccc(F)cc3)[nH]c3c(F)cc(F)cc32)C1` (stereo partly drawn) [Compound 201], the IC50 was below 250 nM.

`CC(O)(CO)CNC(=O)[C@H]1C[C@H](c2c(-c3ccc(F)cc3)[nH]c3c(F)cc(F)cc32)C1` (mixture of isomers) [Compound 216]: the IC50 is above 1000 nM.

With `O=C(NCC(F)(F)F)[C@H]1C[C@H](c2c(-c3ccc(F)cc3)[nH]c3c(F)cc(F)cc32)C1` [Compound 33], the IC50 was in the range of 250 to 1000 nM.

Regarding `O=C1CCC(NC(=O)[C@H]2C[C@H](c3c(-c4ccc(F)cc4)[nH]c4c(F)cc(F)cc43)C2)C(=O)N1` (stereo partly drawn) [Compound 26], the IC50 lay in the range of 250 to 1000 nM.

For `Cc1cnc(NC(=O)[C@H]2C[C@H](c3c(-c4ccc(F)cc4)[nH]c4c(F)cc(F)cc43)C2)o1` [Compound 24], the IC50 is above 1000 nM.

Consider `O=C(NCCn1cnnc1)[C@H]1C[C@H](c2c(-c3ccc(F)cc3)[nH]c3c(F)cc(F)cc32)C1` [Compound 39], for which the concentration for half-maximal inhibition (IC50) was above 1000 nM.

For `O=C([C@H]1C[C@H](c2c(-c3ccc(F)cc3)[nH]c3c(F)cc(F)cc32)C1)N1CCC[C@@H]1CO` [Compound 192], the IC50 was above 1000 nM.

On to `O=C([C@H]1C[C@H](c2c(-c3ccc(F)cc3)[nH]c3c(F)cc(F)cc32)C1)N1CCOC[C@H]1CO` [Compound 217], for which the IC50 is above 1000 nM.

With `O=C(NCC1(O)CC1)[C@H]1C[C@H](c2c(-c3ccc(F)cc3)[nH]c3c(F)cc(F)cc32)C1` [Compound 183], the IC50 was in the range of 250 to 1000 nM.

`O=C(N[C@H]1C[C@H](O)C1)[C@H]1C[C@H](c2c(-c3ccc(F)cc3)[nH]c3c(F)cc(F)cc32)C1` [Compound 20]: the IC50 was above 1000 nM.

In the case of `CC(C)(O)C(O)CNC(=O)[C@H]1C[C@H](c2c(-c3ccc(F)cc3)[nH]c3c(F)cc(F)cc32)C1` (stereo partly drawn) [Compound 215], the IC50 is above 1000 nM.

On to `O=C(NCC(O)CO)[C@H]1C[C@H](c2c(-c3ccc(F)cc3)[nH]c3c(F)cc(F)cc32)C1` (stereo partly drawn) [Compound 14], for which the IC50 was in the range of 250 to 1000 nM.

`Cc1cc(NC(=O)[C@H]2C[C@H](c3c(-c4ccc(F)cc4)[nH]c4c(F)cc(F)cc43)C2)no1` [Compound 17]: the IC50 is 250 to 1000 nM.

In the case of `O=C(NC[C@@H](O)C(F)(F)F)[C@H]1C[C@H](c2c(-c3ccc(F)cc3)[nH]c3c(F)cc(F)cc32)C1` [Compound 177], the IC50 is 250 to 1000 nM.

Regarding `Cc1noc(CNC(=O)[C@H]2C[C@H](c3c(-c4ccc(F)cc4)[nH]c4c(F)cc(F)cc43)C2)n1` [Compound 173], the IC50 was below 250 nM.

Take `C[C@]1(NC(=O)[C@H]2C[C@H](c3c(-c4ccc(F)cc4)[nH]c4c(F)cc(F)cc43)C2)C[C@@H](O)C1` [Compound 211]: the IC50 is 250 to 1000 nM.

As to `O=C([C@H]1C[C@H](c2c(-c3ccc(F)cc3)[nH]c3c(F)cc(F)cc32)C1)N1CC[C@H]1CO` [Compound 206], the IC50 lay in the range of 250 to 1000 nM.

For the compound `CC(CO)(CO)NC(=O)[C@H]1C[C@H](c2c(-c3ccc(F)cc3)[nH]c3c(F)cc(F)cc32)C1` [Compound 186], the 50% inhibitory concentration (IC50) is below 250 nM.

As to `C[C@@H](O)CNC(=O)[C@H]1C[C@H](c2c(-c3ccc(F)cc3)[nH]c3c(F)cc(F)cc32)C1` [Compound 175], the IC50 was in the range of 250 to 1000 nM.
